Experimental data: patent US20090285917A1, “COMPOSITION COMPRISING COMPLEX CRUDE DRUG EXTRACTS SHOWING ANTI-ALLERGIC RHINITIS, ANTI-ATOPIC DERMATITIS AND ANTI-ASTHMA ACTIVITY” (priority 2006, published 2009)
Counter-ions that a name gives are not always drawn.

System: Passive Cutaneous Anaphylaxis in male mouse
Assay: Passive cutaneous anaphylaxis (PCA), evans blue in ears
Format: in vivo
Procedure: Anti-DNP (anti-Dinitrophenyl) of 1.2 ug/mL, […], Sigma was injected by 10 ul into both ears of a male mouse, and 47 hours after antibody Dinitrophenyl injection, the sample is oral-administrated. One hour later (48 hours after antibody-Dinitrophenyl injection), 1.25 mg of DNP-albumin, […], Sigma and a biological salt solution dissolved with 1.25 mg of evans blue, […], Sigma was injected into a tail vein for thereby causing a certain reaction. Neck back bone was broken, and the mouse was dead, and the evans blue color component was measured from both ears. As control groups, promethazine hydrochloride, […], Sigma was used.

In the case of `CC(CN1c2ccccc2Sc2ccccc21)N(C)C` (stereo not drawn) [Promethazine hydrochloride, promethazine hydrochloride], the “Amount of Color” value (administration amount 2, oral) is reported as 7.8 ± 0.5 ug/a pair of ears, the “Amount of Color” value (administration amount 5, oral) is reported as 5.4 ± 1.1 ug/a pair of ears and the “Amount of Color” value (administration amount 10, oral) is reported as 1.7 ± 1.0 ug/a pair of ears.
